In US20090274773A1, “ANTIPROLIFERATIVE COMBINATION COMPRISING CYC-682 AND A CYTOTOXIC AGENT” (Cyclacel Limited, priority 2005, published 2009):

What was measured:
[1] = tested on: panel of human cancer cell lines; assay: Antiproliferative effects as single agent in a panel of human cancer cell lines (MTT); assay type: cell-based
Protocol: The MTT assay was carried out as described previously (Hansen M B, Nielsen S E, Berg K. Re-examination and further development of a precise and rapid dye method for measuring cell growth/cell kill. J Immunol Methods. 1989 May 12; 119(2):203-10). In brief, cells were seeded in 96-well tissue culture plates at a density of 2×10^3 cells/well. Cell viability was determined after a 120-hour incubation, by the calorimetric conversion of yellow, water-soluble tetrazolium MTT (3-[4,5-dimethylthiazol-2-yl]-2,5-diphenyltetrazolium bromide; Sigma, Saint-Quentin Fallavier, France), into purple, water-insoluble formazan. This reaction is catalyzed by mitochondrial dehydrogenases and is used to estimate the relative number of viable cells (Mosmann, T, Rapid calorimetric assay for cellular growth and survival: application to proliferation and cytotoxicity assays. J Immunol Methods. 1983 Dec. 16; 65 (1-2):55-63). Cells were incubated with 0.4 mg/ml MTT for 4 hours at 37° C. After incubation, the supernatant was discarded, the cell pellet was resuspended in 0.1 ml of DMSO and the absorbance was measured at 560 nm using a microplate reader (Dynatech, Michigan). […]
The cells were seeded at 2×10^3 cells/well in 96-well plates and treated 24 hours later with increasing concentrations of CYC682. […] Growth inhibition was then determined by the MTT assay. […]

HCT116 = assay: MTT growth inhibition assay, single agent; assay type: cell-based, human; settings: Homo sapiens, HCT-116, 48 hours exposure, read-out: Antiproliferative effects IC50s (MTT assay)
Protocol: (§1) All cell lines were obtained from the ATCC (Rockville, Md.). Cells were grown as monolayers in RPMI medium supplemented with 10% fetal calf serum (Invitrogen, Cergy-Pontoise, France), 2 mM glutamine, 100 units/ml penicillin and 100 μg/ml streptomycin. All cells were split twice a week using trypsin/EDTA (0.25% and 0.02%, respectively; Invitrogen, Cergy-Pontoise, France) and seeded at a concentration of 2.5×10^4 cells/ml. All cell lines were tested regularly for Mycoplasma contamination by PCR using a Stratagene kit (La Jolla, Calif.).
(§2) The MTT assay was carried out as described previously (Hansen M B, Nielsen S E, Berg K. Re-examination and further development of a precise and rapid dye method for measuring cell growth/cell kill. J Immunol Methods. 1989 May 12; 119(2):203-10). In brief, cells were seeded in 96-well tissue culture plates at a density of 2×10^3 cells/well. Cell viability was determined after a 120-hour incubation, by the calorimetric conversion of yellow, water-soluble tetrazolium MTT (3-[4,5-dimethylthiazol-2-yl]-2,5-diphenyltetrazolium bromide; Sigma, Saint-Quentin Fallavier, France), into purple, water-insoluble formazan. This reaction is catalyzed by mitochondrial dehydrogenases and is used to estimate the relative number of viable cells (Mosmann, T, Rapid calorimetric assay for cellular growth and survival: application to proliferation and cytotoxicity assays. J Immunol Methods. 1983 Dec. 16; 65 (1-2):55-63). Cells were incubated with 0.4 mg/ml MTT for 4 hours at 37° C. After incubation, the supernatant was discarded, the cell pellet was resuspended in 0.1 ml of DMSO and the absorbance was measured at 560 nm using a microplate reader (Dynatech, Michigan). Wells with untreated cells or with drug-containing medium without cells were used as positive and negative controls, respectively. Growth inhibition curves were plotted as a percentage of untreated control cells.
(§3) The cells were seeded at 2×10^3 cells/well in 96-well plates and treated 24 hours later with increasing concentrations of CYC682. After incubation times of 1 hour, 24 hours or 48 hours, the cells were washed and post-incubated in drug-free medium for 72 hours. Growth inhibition was then determined by the MTT assay.

HCC2998 = assay: MTT growth inhibition assay, single agent; assay type: cell-based, human; settings: Homo sapiens, HCC 2998, 48 hours exposure, read-out: Antiproliferative effects IC50s (MTT assay)
Protocol: as §1, §2, §3

IGROV1 = assay: MTT growth inhibition assay, single agent; assay type: cell-based, human; settings: Homo sapiens, IGROV-1, 48 hours exposure, read-out: Antiproliferative effects IC50s (MTT assay)
Protocol: as §1, §2, §3

COLO205 = assay: MTT growth inhibition assay, single agent; assay type: cell-based, human; settings: Homo sapiens, COLO 205, 48 hours exposure, read-out: Antiproliferative effects IC50s (MTT assay)
Protocol: as §1, §2, §3

OVCAR1 = assay: MTT growth inhibition assay, single agent; assay type: cell-based, human; settings: Homo sapiens, 48 hours exposure, read-out: Antiproliferative effects IC50s (MTT assay)
Protocol: as §1, §2, §3

HT29 = assay: MTT growth inhibition assay, single agent; assay type: cell-based, human; settings: Homo sapiens, HT-29, 48 hours exposure, read-out: Antiproliferative effects IC50s (MTT assay)
Protocol: as §1, §2, §3

HOP92 = assay: MTT growth inhibition assay, single agent; assay type: cell-based, human; settings: Homo sapiens, HOP-92, 48 hours exposure, read-out: Antiproliferative effects IC50s (MTT assay)
Protocol: as §1, §2, §3

MDA-MB-435 = assay: MTT growth inhibition assay, single agent; assay type: cell-based, human; settings: Homo sapiens, 48 hours exposure, read-out: Antiproliferative effects IC50s (MTT assay)
Protocol: as §1, §2, §3

MCF7 = assay: MTT growth inhibition assay, single agent; assay type: cell-based, human; settings: Homo sapiens, 48 hours exposure, read-out: Antiproliferative effects IC50s (MTT assay)
Protocol: as §1, §2, §3

HOP62 = assay: MTT growth inhibition assay, single agent; assay type: cell-based, human; settings: Homo sapiens, HOP-62, 48 hours exposure, read-out: Antiproliferative effects IC50s (MTT assay)
Protocol: as §1, §2, §3

colon cancer = settings: cited from earlier work
[2] = phase I, patients with a variety of cancers; cited from earlier work

Row | SMILES | Cytotoxicity after 24 hour exposure ([1]; 24 hour exposure, panel of cell lines) | IC50 (HCT116) [µM] | IC50 (HCC2998) [µM] | IC50 (IGROV1) [µM] | IC50 (COLO205) [µM] | IC50 (OVCAR1) [µM] | IC50 (HT29) [µM] | IC50 (HOP92) [µM] | IC50 (MDA-MB-435) [µM] | IC50 (MCF7) [µM] | IC50 (HOP62) [µM] | Antiproliferative activity in panel ([1]; most cancer cell lines) | Anticancer activity in a model of colon cancer (colon cancer; in vivo) | Increasing survival and preventing spread of colon cancer metastases to the liver, versus gemcitabine or 5-FU (colon cancer; same colon cancer model) | Dose limiting toxicity [2] | Tolerability in humans [2]
1 | N#C[C@H]1[C@H](O)[C@@H](CO)O[C@H]1n1ccc(N)nc1=O [CNDAC, 1-(2-C-Cyano-2-deoxy-β-D-arabino-pentafuranosyl)-cytosine] | not sufficient | 2.8 ± 0.6 | 110 ± 21 | 89 ± 12 | 8 ± 2 | > 900 | 160 ± 43 | 23 ± 6 | 95 ± 13 | 850 ± 60 | 7 ± 1.8 |  |  |  |  | 
2 | CCCCCCCCCCCCCCCC(=O)Nc1ccn([C@@H]2O[C@H](CO)[C@@H](O)[C@@H]2C#N)c(=O)n1 [CYC682, 2′-cyano-2′-deoxy-N^4-palmitoyl-1-β-D-arabinofuranosylcytosine] |  | 3 ± 0.6 | 3.5 ± 0.8 | 6.5 ± 1.6 | 5 ± 0.8 | 45 ± 7 | 4.5 ± 0.7 | 38 ± 8 | 67 ± 14 | 7 ± 1.8 | 6 ± 1.7 | antiproliferative activity at micromolar concentrations | strong anticancer activity | superior | myelosuppression | well tolerated
